Source: US5385922A, “Thiazolidine derivatives” (Cedona Pharmaceuticals B.V., priority 1990, dated 1995)
Where a name gives a salt, the structure may show the parent alone. Read-outs that look alike come from different tables or passages of the source.

Tests used:
[1] = tested on: contracted rat aorta; experiment: In vitro rat aorta assay: relaxation of aorta strips contracted with phenylephrine; assay type: cell-based; details: read-out: EC50 (mean): concentration at which residual contraction is 50% of maximum
Method: Strips of thoracial rat aortae (without aortic arch, helically cut; length 1-1.5 cm; width about 2 mm) were place in an organ bath [20 ml; Krebs Ringer medium bubbled with O2 /CO2 (95/5%) at 37° C.]. A resting tension of 0.5 g was applied and the preparations were equilibrated during 100 min (fresh buffer solution every 20 min). The strips were isotonically contracted with 10^-7 M phenylephrine.
Drug-induced relaxation was tested at increasing concentration (half log steps), till maximal or full relaxation (corresponding to basal precontraction value of organ length) had been reached.
Responses were calculated as change in organ length relatively to maximal displacement by contraction, EC50 values corresponding to the drug concentration at which residual contraction is 50% of maximum.

[2] = tested on: arterial blood pressure; experiment: Anesthetized rabbit experiments: arterial blood pressure and heart rate after infusion; assay type: in vivo, New Zealand white rabbits; note: key: Inactive: No decrease or decrease less than 5%; Active: Decrease between 5 and 40%; Very Active: Decrease greater than 40%
Method: In the anesthetized rabbits, the decrease of arterial blood pressure and the effect on the heart rate after infusion of the test compounds was determined.
New Zealand white rabbits (2.5-3 kg) were anesthetized (30 mg×kg^-1 pentobarbitone, i.v., supplemental doses as needed). Tracheotomy was performed, and an intra-tracheal cannula was inserted. No artificial ventilation was applied and body temperature was maintained at 37°-38° C.
Left ventricular pressure (LVP) was measured (Millar Mikro-Tip catheter via the right carotid artery with transducer in the left ventricle). The LVP signal was differentiated electronically to obtain the rate of change of LVP (LV dP/dt). The heart rate (HR) was derived from the LVP pulse signal. The jugular vein was cannulated for infusion of the test compounds. Aortic blood pressure (SAP and DAP) was monitored (Gould-Statham pressure transducer) by inserting a polyethylene catheter filled with heparin (50 IU×ml^-1) through the femoral artery into the abdominal aorta. Heparin (150 IU×kg^-1, i.v.) was administered to prevent blood clotting.
After completion of surgical procedures, the rabbits were allowed to recover for 15 minutes before drug administration was started.
Drugs were infused at constant rate (0.5 ml×min^-1) for 10 minutes at various doses, resulting in a typical dose range of 2.0, 20.0 and 200 μg×kg^-1 ×min^-1 (2.5 kg rabbit).
Due to poor solubility, 1 mg×ml^-1 solutions of all the compounds tested were prepared in Intralipid® 10%, containing 10% (v/v) dimethyl sulfoxide (DMSO). […] At the infusion of lower doses, the 1 mg×ml^-1 stock solutions were diluted with Intralipid® 10%.
The presented data are based on the effects obtained at the end of the 10 min infusion period at the highest dose tested (150-200 μg×kg^-1 ×min^-1). The indicated ratings are referring to the effects (decrease, defined as percentage of basal value before infusion of the drug) on arterial blood pressure as follows: […]

[3] = rat aorta strips contracted with 10^-7 M phenylephrine
[4] = anesthetized rabbit, end of 10 min infusion at highest dose tested (150-200 μg×kg^-1×min^-1), decrease as percentage of basal value

| Compound | EC50 [1, 3] [nM] | Activity with regard to the lowering of blood pressure [2, 4] | other results |
| --- | --- | --- | --- |
| 4-Carboxy-2-[3-4-(2-nitroxyethoxy)phenyl]thiazolidine [Example XXXV] | 54 | – | – |
| CC(=O)N1C(C(=O)O)CSC1c1ccccc1OCCO[N+](=O)[O-] (stereo not shown) [Example XVII, N-acetyl-4-carboxy-2-[2-(2-nitroxyethoxy)phenyl]thiazolidine] | 720 | – | – |
| COc1ccc(OCCO[N+](=O)[O-])c(C2NC(C(=O)O)CS2)c1 (stereo not shown) [Example XV, 4-Carboxy-2-[5-methoxy-2-(2-nitroxyethoxy)phenyl]thiazolidine] | 7 | Active | – |
| COc1cccc(C2NC(C(=O)O)CS2)c1OCCO[N+](=O)[O-] (stereo not shown) [Example XIV, 4-Carboxyl-2-[3-methoxy-2-(2-nitroxyethoxy)phenyl]thiazolidine] | 230 | – | – |
| O=C(O)C1CSC(c2ccc(OCCO[N+](=O)[O-])cc2)N1 (stereo not shown) [Example XIII, 4-Carboxy-2-[4-(2-nitroxyethoxy)phenyl]thiazolidine] | 22 | Active | – |
| O=C(O)C1CSC(c2cc(Cl)ccc2OCCO[N+](=O)[O-])N1 (stereo not shown) [Example XXV, 4-Carboxy-2-[5-chloro-2-(2-nitroxyethoxy)phenyl]thiazolidine] | 20 | Active | – |
| CCOC(=O)[C@@H]1CSC(c2ccccc2OCCO[N+](=O)[O-])N1 (stereo partly shown) [XXVIII, 4-Ethoxycarbonyl-2-[2-(2-nitroxyethoxy)phenyl]thiazolidine 4-toluenesulphonate] | 9.4 | Active | – |
| O=[N+]([O-])OCCOc1cccc(C2NCCS2)c1 (stereo not shown) [XIX, 2-[3-(2-Nitroxyethoxy)phenyl]thiazolidine×HCl] | 9.7 | – | – |
| N-benzoyl-2-butyl-5,5-dimethyl-4-[(5-nitroxyisosorbide)carbonyl]thiazolidine [Example III] | 98 | Active | – |
| CCCCC1SCC(C(=O)OC2COC3C(O[N+](=O)[O-])COC23)N1C(=O)c1ccccc1 (stereo not shown) [Example II, N-benzoyl-4-[(5-nitroxyisosorbide)carbonyl]-2-butylthiazolidine] | 740 | – | – |
| CC1(C)SC(c2ccccc2OCCO[N+](=O)[O-])N[C@H]1C(=O)O (stereo partly shown) [XXVI, 4-Carboxy-5,5-dimethyl-2-[(2-nitroxyethoxy)phenyl]thiazolidine] | 57 | Active | – |
| CC(=O)N1C(C(=O)NCCO[N+](=O)[O-])CSC1c1ccccc1C(=O)O (stereo not shown) [Example VI, N-acetyl-2-(2-carboxyphenyl)-4-[(2-nitroxyethyl)aminocarbonyl]thiazolidine] | 1620 | – | – |
| O=C(O)C1CSC(c2ccccc2OCCCO[N+](=O)[O-])N1 (stereo not shown) [Example XXXII, 4-Carboxy-2-[2-(3-nitroxypropoxy)phenyl]thiazolidine] | 37 | – | – |
| O=C(NCCO[N+](=O)[O-])c1ccc(C2NC(C(=O)O)CS2)cc1 (stereo not shown) [Example V, 4-Carboxy-2-{4-[(2-nitroxyethyl)aminocarbonyl]phenyl}thiazolidine] | 330 | – | – |
| O=C(O)C1CSC(c2cccc(OCCO[N+](=O)[O-])c2)N1 (stereo not shown) [Example XVIII, 4-Carboxy-2-[3-(2-nitroxyethoxy)phenyl]thiazolidine] | 47 | – | – |
| CCOC(=O)C1CSC(c2ccc(C(=O)NCCO[N+](=O)[O-])cc2)N1 (stereo not shown) [Example VII, 4-Ethoxycarbonyl-2-{4-[(2-nitroxyethyl)aminocarbonyl]phenyl}thiazolidine×HCl] | 20 | – | – |
| COc1cc(C2NC(C(=O)O)CS2)ccc1OCC(=O)NCCO[N+](=O)[O-] (stereo not shown) [Example X, 4-Carboxy-2{3-methoxy-4-[(2-nitroxyethyl)aminocarbonylmethoxy]phenyl}thiazolidine] | 390 | – | – |

| Compound | EC50 [1, 3] [nM] | Activity with regard to the lowering of blood pressure [2, 4] | other results |
| --- | --- | --- | --- |
| CC(=O)N1C(C(=O)NCCO[N+](=O)[O-])CSC1c1ccccc1 (stereo not shown) [Example VIII, N-acetyl-2-phenyl-4-[(2-nitroxyethyl)aminocarbonyl]thiazolidine] | 1880 | – | – |
| O=C(O)C1CSC(c2ccccc2OCCCCO[N+](=O)[O-])N1 (stereo not shown) [XXXIV, 4-Carboxy-2-[2-(4-nitroxybutoxy)phenyl]thiazolidine] | 17 | – | – |
| CCCCC1SCC(C(=O)OC2COC3C(O[N+](=O)[O-])COC23)N1S(=O)(=O)c1ccc(C)cc1 (stereo not shown) [Example I, 2-Butyl-N-(4-methylbenzenesulphonyl)-4-[(5-nitroxyisosorbide)carbonyl]thiazolidine] | 750 | – | – |
| O=C(COc1ccccc1C1NC(C(=O)O)CS1)NCCO[N+](=O)[O-] (stereo not shown) [Example IX, 4-Carboxy-2-{2-[(2-nitroxyethyl)aminocarbonylmethoxyl]phenyl}thiazolidine] | 700 | – | – |
| COc1cc(C2NC(C(=O)O)CS2)cc(Br)c1OCCO[N+](=O)[O-] (stereo not shown) [XXIII, 2-[3-Bromo-5-methoxy-4-(2-nitroxyethoxy)phenyl]-4-carboxythiazolidine] | 820 | – | – |
| O=C(COc1ccc(C2NC(C(=O)O)CS2)cc1)NCCO[N+](=O)[O-] (stereo not shown) [Example XXIV, 4-Carboxy-2-{4-[(2-nitroxyethyl)aminocarbonylmethoxy]phenyl}thiazolidine] | 900 | – | – |
| CC(COc1ccccc1C1NC(C(=O)O)CS1)O[N+](=O)[O-] (stereo not shown) [XXXVI, 4-Carboxy-2-[2-(2-nitroxypropoxy)phenyl]thiazolidine] | 48 | Active | – |
| CCOc1cccc(C2NC(C(=O)O)CS2)c1OCCO[N+](=O)[O-] (stereo not shown) [Example XII, 4-Carboxy-2-[3-ethoxy-2-(2-nitroxyethoxy)phenyl]thiazolidine] | 650 | – | – |
| CC(C)(CO[N+](=O)[O-])C(=O)N1C(C(=O)O)CSC1c1ccccc1 (stereo not shown) [XXXIII, 4-Carboxyl-N-(2,2-dimethyl-3-nitroxypropionyl)-2-phenylthiazolidine] | 2770 | – | – |
| CC(C)(COc1ccccc1C1NC(C(=O)O)CS1)CO[N+](=O)[O-] (stereo not shown) [Example XXX, 4-Carboxy-2-[2-(2,2-dimethyl-3-nitroxypropoxy)phenyl]thiazolidine] | 102 | Active | – |
| O=C(O)C1CSC(c2cc([N+](=O)[O-])ccc2OCCO[N+](=O)[O-])N1 (stereo not shown) [Example XXI, 4-Carboxy-2-[5-nitro-2-(2-nitroxyethoxy)phenyl]thiazolidine] | – | – | Activity with regard to the lowering of blood pressure ([2]; rabbit, in vivo): Active; EC50 ([1]; Rattus norvegicus): 25 nM |
| O=C(O)C1CSC(c2ccccc2OC[C@H]2CC[C@H](CO[N+](=O)[O-])CC2)N1 (relative stereo) [Example XXIX, 4-Carboxy-2-(2-{[4-nitroxymethyl-(trans)-cyclohexyl]methoxy}phenyl)thiazolidine] | 21 | Active | – |
| 2-Butyl-5,5-dimethyl-N-(4-methylbenzenesulphonyl)-4-[(5-nitroxyisosorbide)carbonyl]thiazolidine [Example IV] | 9500 | – | – |
| CC(=O)N1C(CCc2ccccc2)SCC1C(=O)OC[C@H]1CC[C@H](CO[N+](=O)[O-])CC1 (stereo partly shown) [Example XXII, N-acetyl-2-(2-phenylethyl)-4-[(4-nitroxymethylcyclohexyl)methoxycarbonyl]thiazolidine] | 23 | Active | – |
| O=[N+]([O-])OCCOc1ccccc1C1NCCS1 (stereo not shown) [XXVII, 2-[(2-Nitroxyethoxy)phenyl]thiazolidine oxalate hydrate] | 6.7 | Active | – |
| O=C(O)C1CSC(c2ccccc2OCCO[N+](=O)[O-])N1 (stereo not shown) [Example XVI, 4-Carboxy-2-[2-(2-nitroxyethoxy)phenyl]thiazolidine] | – | Active | – |
| CCOC(=O)C1CSC(c2ccc(OCC(=O)NCCO[N+](=O)[O-])c(OC)c2)N1 (stereo not shown) [Example XI, 4-Ethoxycarbonyl-2-{[3-methoxy-4-(2-nitroxyethyl)aminocarbonylmethoxy]phenyl}-thiazolidine hydrochloride] | 270 | – | – |
